{"source": "paper PMC5218480", "about": "(PLoS ONE, 2017)", "system": "MV-4-11 cells", "test": "Gene expression microarray analysis (Affymetrix PrimeView) and GSEA", "type": "cell-based, human", "parameters": "RFU PODN (11730768_x_at) / Fold change /veh PODN (11730768_x_at) / RFU LINC00158 (11744669_a_at) / Fold change /veh LINC00158 (11744669_a_at) / RFU DUSP10 (11751237_a_at) / Fold change /veh DUSP10 (11751237_a_at) / RFU ID3 (11757404_x_at) / Fold change /veh ID3 (11757404_x_at) / RFU PLEKHG5 (11737974_s_at) / Fold change /veh PLEKHG5 (11737974_s_at) / RFU LRRC4B (11730491_at) / Fold change /veh LRRC4B (11730491_at) / RFU GIMAP4 (11747438_a_at) / Fold change /veh GIMAP4 (11747438_a_at) / RFU KRT8 (11758183_x_at) / Fold change /veh KRT8 (11758183_x_at) / RFU CNN1 (11734310_a_at) / Fold change /veh CNN1 (11734310_a_at) / RFU VPS37D (11726825_at) / Fold change /veh VPS37D (11726825_at) / RFU C10orf10 (11716522_x_at) / Fold change /veh C10orf10 (11716522_x_at) / RFU KIR2DL2 /// KIR2DL4 /// KIR2DL5A /// KIR2DL5B /// KIR2DS1 /// KIR2DS2 /// KIR2DS3 /// KIR2DS4 /// KIR3DL3 /// KIR3DL3 /// KIR3DS1 (11738374_at) / Fold change /veh KIR2DL2 /// KIR2DL4 /// KIR2DL5A /// KIR2DL5B /// KIR2DS1 /// KIR2DS2 /// KIR2DS3 /// KIR2DS4 /// KIR3DL3 /// KIR3DL3 /// KIR3DS1 (11738374_at) / RFU C1QL1 (11718748_at) / Fold change /veh C1QL1 (11718748_at) / RFU TMPRSS4 (11747572_a_at) / Fold change /veh TMPRSS4 (11747572_a_at) / RFU HAMP (11756126_x_at) / Fold change /veh HAMP (11756126_x_at) / RFU RNFT2 (11725882_a_at) / Fold change /veh RNFT2 (11725882_a_at) / RFU NR4A2 (11747474_a_at) / Fold change /veh NR4A2 (11747474_a_at) / RFU ABCC12 (11746883_a_at) / Fold change /veh ABCC12 (11746883_a_at) / RFU TMEM136 (11760407_x_at) / Fold change /veh TMEM136 (11760407_x_at) / RFU CLDN22 /// WWC2 (11732394_at) / Fold change /veh CLDN22 /// WWC2 (11732394_at) / RFU HLA-DPB1 (11760878_x_at) / Fold change /veh HLA-DPB1 (11760878_x_at) / RFU SPINT1 (11716480_a_at) / Fold change /veh SPINT1 (11716480_a_at) / RFU GAP43 (11754022_s_at) / Fold change /veh GAP43 (11754022_s_at) / RFU A4GNT (11735810_at) / Fold change /veh A4GNT (11735810_at) / RFU PRB3 (11715151_x_at) / Fold change /veh PRB3 (11715151_x_at) / RFU TUBB4B (11761932_at) / Fold change /veh TUBB4B (11761932_at) / RFU CAPN14 (11732068_a_at) / Fold change /veh CAPN14 (11732068_a_at) / RFU TMCC2 (11721928_a_at) / Fold change /veh TMCC2 (11721928_a_at) / RFU IRGQ (11745062_a_at) / Fold change /veh IRGQ (11745062_a_at) / RFU FAM174B (11720279_a_at) / Fold change /veh FAM174B (11720279_a_at) / RFU TMPRSS4 (11748680_a_at) / Fold change /veh TMPRSS4 (11748680_a_at) / RFU FAM212B (11763350_a_at) / Fold change /veh FAM212B (11763350_a_at) / RFU PLEKHG5 (11743358_a_at) / Fold change /veh PLEKHG5 (11743358_a_at) / RFU ZSCAN30 (11745921_a_at) / Fold change /veh ZSCAN30 (11745921_a_at) / RFU CMKLR1 (11741424_a_at) / Fold change /veh CMKLR1 (11741424_a_at) / RFU LOC101060620 /// MAPK8IP1 (11723275_at) / Fold change /veh LOC101060620 /// MAPK8IP1 (11723275_at) / RFU SPTSSB (11747773_x_at) / Fold change /veh SPTSSB (11747773_x_at) / RFU PRSS12 (11739890_at) / Fold change /veh PRSS12 (11739890_at) / RFU BIN1 (11741810_x_at) / Fold change /veh BIN1 (11741810_x_at) / RFU WNT11 (11732464_a_at) / Fold change /veh WNT11 (11732464_a_at) / RFU C10orf10 (11716521_a_at) / Fold change /veh C10orf10 (11716521_a_at) / RFU C5orf56 (11738089_at) / Fold change /veh C5orf56 (11738089_at) / RFU CYB561 (11721691_x_at) / Fold change /veh CYB561 (11721691_x_at) / RFU ANKRD19P (11752326_a_at) / Fold change /veh ANKRD19P (11752326_a_at) / RFU OR2T12 /// OR2T33 /// OR2T8 (11738714_s_at) / Fold change /veh OR2T12 /// OR2T33 /// OR2T8 (11738714_s_at) / RFU VCAN (11748164_a_at) / Fold change /veh VCAN (11748164_a_at) / RFU JSRP1 (11732532_at) / Fold change /veh JSRP1 (11732532_at) / RFU KRTAP10-11 (11738290_x_at) / Fold change /veh KRTAP10-11 (11738290_x_at) / RFU MYO3A (11730013_a_at) / Fold change /veh MYO3A (11730013_a_at) / RFU EBF3 (11725865_a_at) / Fold change /veh EBF3 (11725865_a_at) / RFU CAMK2N1 (11719241_x_at) / Fold change /veh CAMK2N1 (11719241_x_at) / RFU C5orf56 (11738088_a_at) / Fold change /veh C5orf56 (11738088_a_at) / RFU OLFML3 (11715873_a_at) / Fold change /veh OLFML3 (11715873_a_at) / RFU LOC100653217 /// NTM (11731650_a_at) / Fold change /veh LOC100653217 /// NTM (11731650_a_at) / RFU MAPK11 (11762145_a_at) / Fold change /veh MAPK11 (11762145_a_at) / RFU FIZ1 (11724087_x_at) / Fold change /veh FIZ1 (11724087_x_at) / RFU OASL (11726364_x_at) / Fold change /veh OASL (11726364_x_at) / RFU SOX15 (11748057_x_at) / Fold change /veh SOX15 (11748057_x_at) / RFU CD79A (11719716_a_at) / Fold change /veh CD79A (11719716_a_at) / RFU HIST1H1D (11736915_at) / Fold change /veh HIST1H1D (11736915_at) / RFU CASKIN2 (11723855_a_at) / Fold change /veh CASKIN2 (11723855_a_at) / RFU LOC730098 (11760151_x_at) / Fold change /veh LOC730098 (11760151_x_at) / RFU OR4N2 (11742367_at) / Fold change /veh OR4N2 (11742367_at) / RFU PRRT2 (11749266_a_at) / Fold change /veh PRRT2 (11749266_a_at) / RFU SNX32 (11753110_a_at) / Fold change /veh SNX32 (11753110_a_at) / RFU CDHR5 (11726645_a_at) / Fold change /veh CDHR5 (11726645_a_at) / RFU RCAN1 (11760418_a_at) / Fold change /veh RCAN1 (11760418_a_at) / RFU FAM167A (11723789_a_at) / Fold change /veh FAM167A (11723789_a_at) / RFU FAM26E (11764081_at) / Fold change /veh FAM26E (11764081_at) / RFU ISYNA1 (11749810_s_at) / Fold change /veh ISYNA1 (11749810_s_at) / RFU ACY1 (11761880_at) / Fold change /veh ACY1 (11761880_at) / RFU 11764098_at / Fold change /veh 11764098_at / RFU SAMD14 (11745864_x_at) / Fold change /veh SAMD14 (11745864_x_at) / RFU NPB (11741838_a_at) / Fold change /veh NPB (11741838_a_at) / RFU TMPRSS6 (11731388_a_at) / Fold change /veh TMPRSS6 (11731388_a_at) / RFU KRTAP10-2 (11738614_at) / Fold change /veh KRTAP10-2 (11738614_at) / RFU ARHGAP8 /// PRR5-ARHGAP8 (11727945_x_at) / Fold change /veh ARHGAP8 /// PRR5-ARHGAP8 (11727945_x_at) / RFU KRTAP5-7 /// NADSYN1 (11734609_at) / Fold change /veh KRTAP5-7 /// NADSYN1 (11734609_at) / RFU RASL12 (11751679_a_at) / Fold change /veh RASL12 (11751679_a_at) / RFU CDKN2B (11736163_a_at) / Fold change /veh CDKN2B (11736163_a_at) / RFU PRF1 (11729649_at) / Fold change /veh PRF1 (11729649_at) / RFU, ZNF638 /// ZNF638-IT1 / Fold change vs veh, ZNF638 /// ZNF638-IT1 / RFU, PANK3 / Fold change vs veh, PANK3 / RFU, SH3YL1 / Fold change vs veh, SH3YL1 / RFU, ZEB2 / Fold change vs veh, ZEB2 / RFU, NRIP1 / Fold change vs veh, NRIP1 / RFU, PTTG1IP / Fold change vs veh, PTTG1IP / RFU, CAPN2 / Fold change vs veh, CAPN2 / RFU, MED14 / Fold change vs veh, MED14 / RFU, SNORA58 / Fold change vs veh, SNORA58 / RFU, C1orf63 / Fold change vs veh, C1orf63 / RFU, LRRFIP1 / Fold change vs veh, LRRFIP1 / RFU, NDUFAF7 / Fold change vs veh, NDUFAF7 / RFU, SLC12A2 / Fold change vs veh, SLC12A2 / RFU, IBTK / Fold change vs veh, IBTK / RFU, ESF1 / Fold change vs veh, ESF1 / Fold change vs veh, TMEM50B / RFU, TAOK1 / Fold change vs veh, TAOK1 / RFU, ACBD3 / Fold change vs veh, ACBD3 / RFU, TMA16 / Fold change vs veh, TMA16 / RFU, RWDD3 / Fold change vs veh, RWDD3 / RFU, BCAT1 / Fold change vs veh, BCAT1 / RFU, EDEM3 / Fold change vs veh, EDEM3 / RFU, TMEM33 / Fold change vs veh, TMEM33 / RFU, WDR75 / Fold change vs veh, WDR75 / RFU, AHCTF1 / Fold change vs veh, AHCTF1 / RFU, TFRC / Fold change vs veh, TFRC / RFU, ZDHHC17 / Fold change vs veh, ZDHHC17 / RFU, NOM1 / Fold change vs veh, NOM1 / RFU, ARL8B / Fold change vs veh, ARL8B / RFU, ZBTB11 / Fold change vs veh, ZBTB11 / RFU, TAMM41 / Fold change vs veh, TAMM41 / RFU, KIAA1704 /// LOC100996395 / Fold change vs veh, KIAA1704 /// LOC100996395 / RFU, ING1 / Fold change vs veh, ING1 / RFU, TRMT61B / Fold change vs veh, TRMT61B / RFU, FUBP3 / Fold change vs veh, FUBP3 / RFU, TP53 / Fold change vs veh, TP53 / RFU, TNKS2 / Fold change vs veh, TNKS2 / RFU, ZFP14 / Fold change vs veh, ZFP14 / RFU, ACTR2 / Fold change vs veh, ACTR2 / RFU, PPP3R1 / Fold change vs veh, PPP3R1 / RFU, PIK3R1 / Fold change vs veh, PIK3R1 / RFU, HNRNPA1 / Fold change vs veh, HNRNPA1 / RFU, RNF170 / Fold change vs veh, RNF170 / RFU, ZNF28 / Fold change vs veh, ZNF28 / RFU, RNGTT / Fold change vs veh, RNGTT / RFU, OGT / Fold change vs veh, OGT / RFU, BRD1 / Fold change vs veh, BRD1 / RFU, MARS / Fold change vs veh, MARS / RFU, ZNF655 / Fold change vs veh, ZNF655 / RFU, FAHD1 / Fold change vs veh, FAHD1 / RFU, BDP1 / Fold change vs veh, BDP1 / RFU, LRRCC1 / Fold change vs veh, LRRCC1 / RFU, ARID1A / Fold change vs veh, ARID1A / RFU, ZNF146 / Fold change vs veh, ZNF146 / RFU, ZNF330 / Fold change vs veh, ZNF330 / RFU, GPN3 / Fold change vs veh, GPN3 / RFU, C9orf123 / Fold change vs veh, C9orf123 / RFU, N4BP2L2 / Fold change vs veh, N4BP2L2 / RFU, ARFIP1 / Fold change vs veh, ARFIP1 / RFU, FAM179B / Fold change vs veh, FAM179B / RFU, BCL10 / Fold change vs veh, BCL10 / RFU, UHRF1BP1L / Fold change vs veh, UHRF1BP1L / RFU, BET1 / Fold change vs veh, BET1 / RFU, CNOT2 / Fold change vs veh, CNOT2 / RFU, ZNF268 / Fold change vs veh, ZNF268 / Fold change vs veh, ZNF507 / RFU, DGCR2 / Fold change vs veh, DGCR2 / RFU, WDSUB1 / Fold change vs veh, WDSUB1 / Fold change vs veh, HSP90B1 /// MIR3652 / RFU, ADSS / Fold change vs veh, ADSS / RFU, GK / Fold change vs veh, GK / RFU, ZNF148 / Fold change vs veh, ZNF148 / RFU, TAF9 / Fold change vs veh, TAF9 / RFU, SLC1A5 / Fold change vs veh, SLC1A5 / RFU, SLMO2 / Fold change vs veh, SLMO2 / RFU, ABCC4 / Fold change vs veh, ABCC4 / RFU, LOC101060439 /// RAP1B / Fold change vs veh, LOC101060439 /// RAP1B / RFU, RFX7 / Fold change vs veh, RFX7 / RFU, GTPBP10 / Fold change vs veh, GTPBP10 / RFU, CNEP1R1 / Fold change vs veh, CNEP1R1 / RFU, BIVM-ERCC5 /// ERCC5 / Fold change vs veh, BIVM-ERCC5 /// ERCC5 / RFU, ILF3 / Fold change vs veh, ILF3 / RFU 11762660_at / Fold change /veh 11762660_at / RFU VCAN (11757783_s_at) / Fold change /veh VCAN (11757783_s_at) / RFU DDX43 (11728927_at) / Fold change /veh DDX43 (11728927_at) / RFU KRT8 (11758188_x_at) / Fold change /veh KRT8 (11758188_x_at) / RFU NKD1 (11759106_at) / Fold change /veh NKD1 (11759106_at) / RFU SRD5A1 (11742802_a_at) / Fold change /veh SRD5A1 (11742802_a_at) / RFU TPSAB1 /// TPSB2 (11721975_s_at) / Fold change /veh TPSAB1 /// TPSB2 (11721975_s_at) / RFU GSTM3 (11746129_a_at) / Fold change /veh GSTM3 (11746129_a_at) / RFU IL23R (11737362_x_at) / Fold change /veh IL23R (11737362_x_at) / RFU TMEM51 (11727254_a_at) / Fold change /veh TMEM51 (11727254_a_at) / RFU PIWIL2 (11732686_x_at) / Fold change /veh PIWIL2 (11732686_x_at) / RFU ORM1 (11744905_x_at) / Fold change /veh ORM1 (11744905_x_at) / RFU CCDC152 (11743942_at) / Fold change /veh CCDC152 (11743942_at) / RFU ECM1 (11717891_a_at) / Fold change /veh ECM1 (11717891_a_at) / RFU IL23R (11748794_a_at) / Fold change /veh IL23R (11748794_a_at) / RFU TNFAIP8L3 (11732012_x_at) / Fold change /veh TNFAIP8L3 (11732012_x_at) / RFU MBOAT4 (11741988_at) / Fold change /veh MBOAT4 (11741988_at) / RFU 11764193_at / Fold change /veh 11764193_at / RFU TMEM53 (11763286_at) / Fold change /veh TMEM53 (11763286_at) / RFU MAGEB2 (11727129_at) / Fold change /veh MAGEB2 (11727129_at) / RFU TMEM200A (11744735_a_at) / Fold change /veh TMEM200A (11744735_a_at) / RFU CCDC152 (11751479_a_at) / Fold change /veh CCDC152 (11751479_a_at) / RFU FAM211A (11726209_a_at) / Fold change /veh FAM211A (11726209_a_at) / RFU RGS16 (11746705_a_at) / Fold change /veh RGS16 (11746705_a_at) / RFU VCAN (11755009_s_at) / Fold change /veh VCAN (11755009_s_at) / RFU RHOB (11743442_s_at) / Fold change /veh RHOB (11743442_s_at) / RFU RGS16 (11720943_a_at) / Fold change /veh RGS16 (11720943_a_at) / RFU RGS16 (11720944_at) / Fold change /veh RGS16 (11720944_at) / RFU, VPS4B / Fold change vs veh, VPS4B / RFU, CREB1 / Fold change vs veh, CREB1 / RFU, DNAJC13 / Fold change vs veh, DNAJC13 / RFU, GNAQ / Fold change vs veh, GNAQ / RFU, CDK5R1 / Fold change vs veh, CDK5R1 / RFU, ZRANB3 / Fold change vs veh, ZRANB3 / RFU, CUL4A / Fold change vs veh, CUL4A / RFU, CCNY / Fold change vs veh, CCNY / RFU, UFL1 / Fold change vs veh, UFL1 / RFU, COG3 / Fold change vs veh, COG3 / RFU, DIAPH2 / Fold change vs veh, DIAPH2 / RFU, SKA2 / Fold change vs veh, SKA2 / RFU, AFF3 / Fold change vs veh, AFF3 / RFU, LMF1 / Fold change vs veh, LMF1 / RFU, IPO11 / Fold change vs veh, IPO11 / RFU, DFFB / Fold change vs veh, DFFB / RFU, FOXP1 / Fold change vs veh, FOXP1 / RFU, CARD8 / Fold change vs veh, CARD8 / RFU, STRN3 / Fold change vs veh, STRN3 / RFU, ADK / Fold change vs veh, ADK / RFU, RASSF2 / Fold change vs veh, RASSF2 / RFU, WIPF1 / Fold change vs veh, WIPF1 / RFU, LARP1B / Fold change vs veh, LARP1B / RFU, RASA1 / Fold change vs veh, RASA1 / RFU, RB1 / Fold change vs veh, RB1 / RFU, PPFIA1 / Fold change vs veh, PPFIA1 / RFU, MAT2A / Fold change vs veh, MAT2A / RFU, CCT5 / Fold change vs veh, CCT5 / RFU, WDR92 / Fold change vs veh, WDR92 / RFU, CUX1 / Fold change vs veh, CUX1 / RFU, TTC7A / Fold change vs veh, TTC7A / RFU, TMEM135 / Fold change vs veh, TMEM135 / RFU, DEPTOR / Fold change vs veh, DEPTOR / RFU, CPM / Fold change vs veh, CPM / RFU, DNAJB6 / Fold change vs veh, DNAJB6 / RFU, CACNA2D3 / Fold change vs veh, CACNA2D3 / RFU, DTX4 / Fold change vs veh, DTX4 / RFU, TFCP2 / Fold change vs veh, TFCP2 / RFU, GMCL1 /// GMCL1P1 / Fold change vs veh, GMCL1 /// GMCL1P1 / RFU, AEBP2 / Fold change vs veh, AEBP2 / RFU, SNHG1 /// SNORD22 /// SNORD25 /// SNORD26 /// SNORD27 /// SNORD28 /// SNORD29 /// SNORD31 / Fold change vs veh, SNHG1 /// SNORD22 /// SNORD25 /// SNORD26 /// SNORD27 /// SNORD28 /// SNORD29 /// SNORD31 / Fold change (Aza/veh), C12orf56 (ProbeSet 11735607_a_at) / Fold change (ACY-1035/veh), C12orf56 (ProbeSet 11735607_a_at) / Fold change (Aza/veh), FGFR1OP (ProbeSet 11751329_s_at) / Fold change (ACY-1035/veh), FGFR1OP (ProbeSet 11751329_s_at) / Fold change (Aza/veh), VPS36 (ProbeSet 11739960_a_at) / Fold change (ACY-1035/veh), VPS36 (ProbeSet 11739960_a_at) / RFU SYPL1 (11715823_x_at) / Fold change /veh SYPL1 (11715823_x_at) / RFU IGFBP7 (11715501_s_at) / Fold change /veh IGFBP7 (11715501_s_at) / RFU REEP3 (11722064_at) / Fold change /veh REEP3 (11722064_at) / RFU IGLL1 (11728026_x_at) / Fold change /veh IGLL1 (11728026_x_at): dose or concentration left out as unconfirmed", "conditions": "ProbeSet 11732433_s_at; LIST B"}
{"smiles": "Nc1ccc(-c2cccs2)cc1NC(=O)c1ccc2c(c1)cc(C1CC1)n2CCN1CCOCC1", "note": "[ACY-1035]", "values": [{"measurement": "RFU, GK", "value": 305.66, "unit": "RFU"}]}
